Here are results for 1 compound from patent US20250057864A1, “COMPOSITION FOR IMPROVING EXERCISE PERFORMANCE COMPRISING GYPENOSIDE COMPOUND AS ACTIVE INGREDIENT” (BTC CORPORATION, priority 2022, published 2025).

One series has as its system C2C12 cells. Briefly: Intracellular ROS production in C2C12 cells (DCF-DA). Format: cell-based, mice. The settings on record: oxidative stress by 50 μM TBHP, 1 h pretreatment with test substance. How it is done:
C2C12 cells were dispensed into a 96-well plate at 1×10^4 cells/well and stabilized for 24 hours. Subsequently, the cells were cultured for 1 hour after exchanging with the culture medium with the myocyte differentiation medium containing each test substance. After 1 hour, the cells were washed with PBS and cultured further for 3 hours with a culture medium containing 50 μM tert-butyl hydrogen peroxide (TBHP), and the ROS level in the cells was measured using a DCF-DA assay kit (Abcam) according to the manufacturer's method.
In order to investigate the effect of each of the compositions according to Examples 1 to 4 on ROS production in C2C12 cells, ROS production was measured using 2′,7′-dichlorofluorescin diacetate (DCF-DA). DCF-DA was measured using the principle that it is oxidized by ROS in cells and is converted to DCF, which emits fluorescence.

Series [1] has as its system ICR mice. Description: Weight-loaded forced swimming test, time to exhaustion. The settings on record: forced swimming with 5% BW load, day 14, oral 7 mg/kg BW. Format: in vivo. How it is done: After an acclimatization period of 1 week, healthy animals were selected and divided into 6 groups of 10 mice per group according to the randomized block design. A normal control group was orally administered with 5% Tween 80-saline, and a composition was orally administered with Creatine monohydrate (Cr) at 75 mg/kg body weight (BW). Test groups (G2 to G5) were orally administered the compositions of Examples 1 to 4 dissolved in drinking water to 7 mg/kg body weight (BW) at regular times for 17 days. Throughout the test period, the experimental animals were given free access to solid feed for experimental animals (Cargill Agri Puna) and drinking water.
Weight-loaded forced swimming test was performed for the experimental animals as follows. A plastic pool (90×45×45 cm) was filled with water at the depth of 35 cm and the temperature of the water was maintained at 25±1° C. After attaching a weight (5% of the body weight of the experimental animal) to the tail, the experimental animal was forced to swim in the pool.
On days 10 and 12 after the administration of the test substance, swimming adaptation exercise was given twice for 15 minutes each. Two days after the final swimming adaptation exercise (on day 14 after the administration of the test substance), forced swim test was performed after fasting the experimental animal for 16 hour, and the time until exhaustion was measured. […]

The test system of series [2] is ICR mice. Briefly: Serum markers after 60 min forced swimming without weight load. Type of series: in vivo. The settings on record: serum after 60 min forced swimming, day 17, oral 7 mg/kg BW. How it is done: On day 17 after the administration of the test substance, the experimental animal was forced to swim (for 60 minutes) without a weight load. Then, the experimental animal was anesthetized using an anesthetic prepared by dilution of tribromoethanol with tertiary amyl alcohol and blood was taken from the eye socket. The blood was placed in a serum-separating tube (Becton Dickinson) and left at room temperature for 30 minutes, centrifuged at 3,000 rpm for 20 minutes to separate the serum, and kept at −70° C. until analysis.
Blood urea nitrogen (BUN) and creatinine (CREA) content in the serum and the activities of alanine aminotransferase (ALT), aspartate aminotransferase (AST), creatine kinase (CK) and lactate dehydrogenase (LDH) were measured using a blood biochemistry analyzer (KoneLab 20 XT, Thermo Fisher Scientific). The serum lactate content was measured using a lactate assay kit (Abcam) according to the method proposed by the manufacturer.
The result of measuring the contents of lactate, BUN and CREA and the activities of CK, LDH, ALT and AST in the serum taken after forced swimming for 60 minutes without weight load is shown in Table 19.

The subject of series [3] is ICR mice. Briefly: Treadmill test: exercise time and exercise capacity until exhaustion. The settings on record: 6 weeks. Format: in vivo. How it is done: After an acclimatization period of 1 week, healthy animals were selected and divided into 6 groups according to the randomized block design. The animals were divided into (G1) a non-exercise control group, (G2) a non-exercise+7 mg/kg body weight (BW) Example 1 group, (G3) a non-exercise+7 mg/kg BW Example 2 group, (G4) a non-exercise+7 mg/kg BW Example 3 group, (G5) a non-exercise+7 mg/kg BW Example 4 group, (G6) an exercise control group, (G7) an exercise+7 mg/kg BW Example 1 group, (G8) an exercise+7 mg/kg BW Example 2 group, (G9) an exercise+7 mg/kg BW Example 3 group, (G10) an exercise+7 mg/kg BW Example 4 group, and (G11) an exercise+75 mg/kg BW Cr dose group. Each test group consisted of 10 animals.
The test substance was dissolved in drinking water and administered every day at regular times (2 hours before exercise) for 6 weeks. Throughout the test period, the experimental animals were given free access to solid feed for experimental animals (Cargill Agri Puna) and drinking water.
The endurance exercise of the animals was conducted for 6 weeks using a treadmill for small animals (Exer3/6 Treadmill, Columbus Instruments). The endurance exercise was conducted with 10 degrees of slope at 10 m/min, starting from for 15 minutes in the first week, for 20 minutes in the second week, for 25 minutes in the third week, for 30 minutes in the fourth week, for 35 minutes in the fifth week, and for 40 minutes in the sixth week.
After 6 weeks of the exercise training, in order to evaluate endurance exercise performance, exercise was started with 10 degrees of slope at 10 m/min for 5 minutes, and the intensity of the exercise was increased by 1 m/min every 1 minute up to the highest speed of 25 m/min. The duration of the exercise until exhaustion was measured. The experimental animal was judged to be exhausted if it was unable to run for 10 seconds or longer at the back of the treadmill. The exercise capacity of the experimental animal was calculated as follows.
In order to evaluate the performance of the effect of the test substances on endurance exercise performance, exercise was started with 10 degrees of slope at 10 m/min for 5 minutes, and the intensity of the exercise was increased by 1 m/min every 1 minute up to the highest speed of 25 m/min.

[4] abbreviates: non-exercise, 7 mg/kg BW, treadmill test.
The mark [5] stands for this setting: treadmill exercise, 7 mg/kg BW (Cr 75 mg/kg BW).

`CC(C)=CCC[C@](C)(O)C1CC[C@]2(C)C1[C@H](O)CC1[C@@]3(C)C[C@@H](O)C(OC4OC(CO)C(O)C(O)C4OC4OC(CO)C(O)C(O)C4O)C(C)(C)C3CC[C@]12C` (stereo partly drawn) [Example 1, Gypenoside L]: the “ROS production (fluorescence intensity)” value in the series on C2C12 cells is listed as 22.12 ± 0.70 fluorescence intensity. The “Time to exhaustion” value with ICR mice [1] came out at 1193.4 ± 176.8 s. In the series with ICR mice [2], this compound displayed an ALT of 100.41 ± 19.75 U/L, an AST of 160.81 ± 20.53 U/L, a BUN of 8.15 ± 0.68 mg/dL and a CK of 1896.1 ± 196.4 U/L. In addition, in the series on ICR mice [2], the CREA is given as 0.35 ± 0.01 mg/dL and the LDH was determined as 1224.3 ± 162.1 U/L. Moreover, in the series with ICR mice [3] (setting [4]), the Exercise capacity is on record as 1,583 ± 91 g and the “Time until exhaustion (sec)” value is on record as 1,472 ± 66 sec. Besides, in the series on ICR mice [3] (setting [5]), the Exercise capacity was 2,832 ± 119^+ g and the “Time until exhaustion (sec)” value is given as 2,393 ± 93^+ sec.
